Laboratory results: patent US11679107B2 (Eisai R&D Management Co., Ltd., priority 2018, dated 2023)
Where two headings read alike, the source gives them in different places.

Columns and labels:
SF3b complexes = target: T1, SF3b complexes (Homo sapiens, UniProt O75533+Q7RTV0); assay: Scintillation proximity assay (SPA) with [3H]-labelled pladienolide probe; assay type: binding; conditions: SF3B1 (WT); geometric mean; read-out: SPA-ATS GMean IC50 (nM) SF3B1 (WT)
T1 construct: endogenous in cells; host or cells: Nuclear extracts; A HeLa S3 extract preparation is described for the in vitro splicing assay
Outline: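 SF3b complexes captured from nuclear extracts on anti-SF3B1 antibody SPA beads; test compounds pre-incubated 30 min before 2.5 nM [3H]-pladienolide probe added, then 30 min incubation. Bound probe read by scintillation; values from non-linear regression of concentration–response curves.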

[1] = test system: Ad2 variant pre-mRNAs spliced in HeLa S3 nuclear extracts; assay: In vitro splicing assay (IVS), RT-qPCR of spliced product; assay type: biochemical; conditions: for IC50: geometric mean; for Ratio Ad2.1/2.2: ratio of IVS IC50 Ad2.1 to Ad2.2
Outline: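 Read-out is one-step TaqMan RT-qPCR of spliced Ad2 mRNA with Ftz as reference, normalized to DMSO and fit by non-linear regression. Reactions held HeLa S3 nuclear extract, 2 ng Ad2-derived pre-mRNA and test compound, with 15 min preincubation. Splicing was started with ATP-containing activation buffer and run 90 min at 30 °C.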

[2] = test system: NCI-H1568 cells (high MCL1); assay: Cell proliferation and viability, CellTiter-Glo, 72 hours; assay type: cell-based; conditions: for GI50: geometric mean
Outline: (§1)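 ATP luminescence (CellTiter-Glo) was measured 72 h after treatment with compound at 10 μM–100 pM (11 points, half-log) in 0.1% DMSO. The Panc line was grown in RPMI-1640 plus insulin and 15% FBS, the other in 10% FBS. Data were normalised to time zero and vehicle controls, where −100% is cidal and 0% static.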

[3] = test system: Panc 05.04 cells (SF3b K700E mutant); assay: as above; assay type: cell-based; conditions: for GI50: geometric mean
Outline: as §1

[4] = Ad2.1 pre-mRNA substrate, read-out: qPCR-IVS-ATS GMean IC50 (nM) Ad2.1
[5] = Ad2.2 pre-mRNA substrate, read-out: qPCR-IVS-ATS GMean IC50 (nM) Ad2.2
[6] = NCI-H1568, read-out: CTGlo-ATS GMean GI50 (nM) 72 h NCIH1568.1, NCIH1568.1 cells, 72 h
[7] = NCIH1568.1 cells, 72 h, −100% cidal, 0% static, 100% maximal growth
[8] = PANC0504.1 cells, 72 h, −100% cidal, 0% static, 100% maximal growth
[9] = Panc 05.04, read-out: CTGlo-ATS GMean GI50 (nM) 72 h PANC0504.1, PANC0504.1 cells, 72 h
[10] = NCI-H1568, 72 h, read-out: CTGlo-ATS GMean GI50 (nM) 72 h NCIH1568.1, NCIH1568.1 cells, 72 h
[11] = Panc 05.04, 72 h, read-out: CTGlo-ATS GMean GI50 (nM) 72 h PANC0504.1, PANC0504.1 cells, 72 h
[12] = 72 h, NCIH1568.1, -100% = cidal, 0% = static, 100% = uninhibited growth
[13] = NCI-H1568, read-out: CTGlo-ATS GMean GI50 (nM) 72 h NCIH1568.1, 72 h, NCIH1568.1
[14] = 72 h, PANC0504.1, -100% = cidal, 0% = static, 100% = uninhibited growth
[15] = Panc 05.04, read-out: CTGlo-ATS GMean GI50 (nM) 72 h PANC0504.1, 72 h, PANC0504.1

Row | Compound | IC50 (SF3b complexes) [nM] | IC50 [1, 4] [nM] | IC50 [1, 5] [nM] | GI50 [2, 6] [nM] | CTGlo-ATS Mean MinResponse % 72 h NCIH1568.1 [2, 7] [%] | CTGlo-ATS Mean MinResponse % 72 h PANC0504.1 [3, 8] [%] | GI50 [3, 9] [nM] | GI50 [2, 10] [nM] | GI50 [3, 11] [nM] | Ratio Ad2.1/2.2 [1] | CTGlo-ATS Mean MinResponse % 72 h NCIH1568.1 [2, 12] [%] | GI50 [2, 13] [nM] | CTGlo-ATS Mean MinResponse % 72 h PANC0504.1 [3, 14] [%] | GI50 [3, 15] [nM] | GI50 ([2]; read-out: CTGlo-ATS GMean GI50 (nM) 72 h NCIH1568.1, NCIH1568.1 cells, 72 h) [nM] | GI50 ([3]; read-out: CTGlo-ATS GMean GI50 (nM) 72 h PANC0504.1, PANC0504.1 cells, 72 h) [nM]
1 | C/C(=C\c1cccc2c1c(C)nn2C)[C@H]1OC(=O)C[C@H](O)CC[C@H](C)[C@@H](OC(=O)N2CCN(C)CC2)/C=C/[C@@H]1C [Compound 97] | 240 | > 25000 | 2890 | 4370 | 11.801 | 46.987 | 9140 | – | – | – | – | – | – | – | – | –
2 | C/C(=C\c1cncc(Cl)c1)[C@H]1OC(=O)C[C@H](O)CC[C@H](C)[C@@H](OC(=O)N2CCN(C)CC2)/C=C/[C@@H]1C [Compound 46] | 12.2 | > 25000 | 114 | 78.4 | −10.684 | 0.031 | 40 | – | – | – | – | – | – | – | – | –
3 | C/C(=C\c1cc(F)cc(N2CCN(CC(=O)c3cnccn3)CC2)c1)[C@H]1OC(=O)C[C@H](O)CC[C@H](C)[C@@H](OC(=O)N2CCN(C)CC2)/C=C/[C@@H]1C [Compound 85] | 4.74 | 22 | 27 | – | −80.438 | −90.914 | – | 14.1 | 8.42 | – | – | – | – | – | – | –
4 | C/C(=C\c1cccc(S(=O)(=O)N2CC(F)(F)C2)c1)[C@H]1OC(=O)C[C@H](O)CC[C@H](C)[C@@H](OC(=O)N2CCN(C)CC2)/C=C/[C@@H]1C [Compound 206, [(2S,3S,4E,6R,7S,10R)-2-[(E)-1-[3-(3,3-difluoroazetidin-1-yl)sulfonylphenyl]prop-1-en-2-yl]-10-hydroxy-3,7-dimethyl-12-oxo-1-oxacyclododec-4-en-6-yl] 4-methylpiperazine-1-carboxylate] | 1.81 | > 25000 | 113 | – | – | – | – | – | – | 221.630 | −57.585 | 72.2 | −83.659 | 62.3 | – | –
5 | C/C(=C\c1cc(F)cc(N2CCOCC2)c1)[C@H]1OC(=O)C[C@H](O)CC[C@H](C)[C@@H](OC(=O)N2CCN(CCO)CC2)/C=C/[C@@H]1C [Compound 21] | 10.3 | 1610 | 52.3 | 31.2 | −50.841 | −90.919 | 23.6 | – | – | – | – | – | – | – | – | –
6 | C/C(=C\c1cc(F)cc(N2CCOCC2)c1)[C@H]1OC(=O)C[C@H](O)CC[C@@](C)(O)[C@@H](OC(=O)N2CCN(C)CC2)/C=C/[C@@H]1C [Compound 61] | 13.5 | > 25000 | 114 | – | −38.996 | −93.599 | – | 46.8 | 42 | – | – | – | – | – | – | –
7 | C/C(=C\c1ccnc(N2CCOCC2)c1)[C@H]1OC(=O)C[C@H](O)CC[C@H](C)[C@@H](OC(=O)N2CCN(C)CC2)/C=C/[C@@H]1C [Compound 6] | 8.85 | > 25000 | 75.3 | 29.1 | −17.149 | −88.664 | 15.7 | – | – | – | – | – | – | – | – | –
8 | C/C(=C\c1cc(C)cc2[nH]ncc12)[C@H]1OC(=O)C[C@H](O)CC[C@H](C)[C@@H](OC(=O)N2CCN(C)CC2)/C=C/[C@@H]1C [Compound 96] | 2.4 | > 25000 | 108 | 305 | −29.687 | −14.554 | 168 | – | – | – | – | – | – | – | – | –
9 | C/C(=C\c1cc(F)cc(N2CCOCC2)c1)[C@H]1OC(=O)C[C@H](O)CC[C@@](C)(O)C(OC(=O)N2CCN(C)CC2)/C=C/[C@@H]1C (stereo in doubt) [Compound 86, [(2S,3S,4E,6R,7R,10R)-2-[(E)-1-(3-fluoro-5-morpholin-4-ylphenyl)prop-1-en-2-yl]-7,10-dihydroxy-3,7-dimethyl-12-oxo-1-oxacyclododec-4-en-6-yl] 4-methylpiperazine-1-carboxylate] | 12.2 | 929 | 89.6 | – | −39.164 | −93.814 | – | – | – | – | – | – | – | – | 32.5 | 34.8
10 | C/C(=C\c1cc(F)cc(N2CCC[C@@H]2C)c1)[C@H]1OC(=O)C[C@H](O)CC[C@H](C)[C@@H](OC(=O)N2CCN(C)CC2)/C=C/[C@@H]1C [Compound 43] | 12 | > 25000 | 139 | – | −36.254 | −88.777 | – | 89.1 | 57.5 | – | – | – | – | – | – | –
11 | CN[C@@H]1CCN(c2cccc(/C=C(\C)[C@H]3OC(=O)C[C@H](O)CC[C@H](C)[C@@H](OC(=O)N4CCN(C)CC4)/C=C/[C@@H]3C)c2)C1 [Compound 9] | 14.9 | 107 | 27 | 116 | −83.308 | −87.085 | 63.9 | – | – | – | – | – | – | – | – | –
12 | C/C(=C\c1cc(F)cc(N2CCN(S(C)(=O)=O)CC2)c1)[C@H]1OC(=O)C[C@H](O)CC[C@H](C)[C@@H](OC(=O)N2CCN(C)CC2)/C=C/[C@@H]1C [Compound 58] | 6.54 | 30.1 | 22 | 7 | −70.067 | −91.132 | 6.97 | – | – | – | – | – | – | – | – | –
13 | C/C(=C\c1cc(F)cc(N2CCOCC2)c1)[C@H]1OC(=O)C[C@H](O)CC[C@H](C)[C@@H](OC(=O)N2CCN3CCCC3C2)/C=C/[C@@H]1C (stereo partly drawn) [Compound 82] | 3.79 | 68.6 | 28.2 | 12.2 | −60.656 | −88.044 | 8.74 | – | – | – | – | – | – | – | – | –
14 | C/C(=C\c1cc(F)cc(N2CCN(C(=O)CO)CC2)c1)[C@H]1OC(=O)C[C@H](O)CC[C@H](C)[C@@H](OC(=O)N2CCN(C)CC2)/C=C/[C@@H]1C [Compound 135] | 3.67 | 14.9 | 14.9 | 2.41 | −84.225 | −90.575 | 2.46 | – | – | – | – | – | – | – | – | –
15 | C/C(=C\c1cc(F)cc(N2CCN(CC(F)(F)F)CC2)c1)[C@H]1OC(=O)C[C@H](O)CC[C@H](C)[C@@H](OC(=O)N2CCN(C)CC2)/C=C/[C@@H]1C [Compound 107] | 8.76 | 190 | 25.4 | 7.27 | −87.564 | −83.679 | 8.46 | – | – | – | – | – | – | – | – | –
16 | C/C(=C\c1cccc(N2CCN(CCO)CC2)c1)[C@H]1OC(=O)C[C@H](O)CC[C@H](C)[C@@H](OC(=O)N2CCC(N3CCCCC3)CC2)/C=C/[C@@H]1C [Compound 263, [(2S,3S,4E,6R,7S,10R)-10-hydroxy-2-[(E)-1-[3-[4-(2-hydroxyethyl)piperazin-1-yl]phenyl]prop-1-en-2-yl]-3,7-dimethyl-12-oxo-1-oxacyclododec-4-en-6-yl] 4-piperidin-1-ylpiperidine-1-carboxylate] | 37.7 | 93.6 | 25.5 | – | – | – | – | – | – | 3.677 | −67.601 | 102 | −88.783 | 64.5 | – | –
